Data taken from ChEMBL document CHEMBL1671617, “Correlation of antimicrobial resistance with beta-lactamases, the OmpA-like porin, and efflux pumps in clinical isolates of Acinetobacter baumannii endemic to New York City” (2008).
Values after ≈ are worked out from the molar mass of the structure shown.

How the values were obtained:
Format in all cases: functional
Acinetobacter baumannii [1] = experiment: Antimicrobial activity against ISAba1 linked with the blaOXA-51-type beta-lactamase harboring Acinetobacter baumannii alpha clonal group isolate 8 expressing ampC, ompA, adeB, adeM, aacC1, aadA1 by Etest method
Acinetobacter baumannii [2] = experiment: Antimicrobial activity against Acinetobacter baumannii lambda clonal group isolate 27 expressing ampC, ompA, adeB, adeM, aadB, aadA1 by Etest method
Acinetobacter baumannii [3] = experiment: Antimicrobial activity against Acinetobacter baumannii eta clonal group isolate 35 expressing ampC, ompA, adeB, adeM by Etest method
Acinetobacter baumannii [4] = experiment: Antimicrobial activity against ISAba1 linked with the blaOXA-51-type beta-lactamase harboring Acinetobacter baumannii lambda clonal group isolate 29 expressing ampC, ompA, adeM, aadB, aadA1 by Etest method
Acinetobacter baumannii [5] = experiment: Antimicrobial activity against Acinetobacter baumannii nu clonal group isolate 34 expressing ampC, ompA, adeB, adeM by Etest method
Acinetobacter baumannii [6] = experiment: Antimicrobial activity against ISAba1 linked with the blaOXA-51-type beta-lactamase harboring Acinetobacter baumannii beta clonal group isolate 12 expressing ompA, adeB, adeM, aacA4, aacC2, blaSHV-5 by Etest method
Acinetobacter baumannii [7] = experiment: Antimicrobial activity against ISAba1 linked with the blaOXA-51-type beta-lactamase harboring Acinetobacter baumannii zeta clonal group isolate 20 expressing ampC, ompA, adeB, adeM, aacC2 by Etest method
Acinetobacter baumannii [8] = experiment: Antimicrobial activity against Acinetobacter baumannii nu clonal group isolate 31 expressing ampC, ompA, adeB, adeM, aadB, aadA2 by Etest method
Acinetobacter baumannii [9] = experiment: Antimicrobial activity against Acinetobacter baumannii alpha clonal group isolate 5 expressing ampC, ompA, adeB, adeM, aacC1, aadA1 by Etest method
Acinetobacter baumannii [10] = experiment: Antimicrobial activity against Acinetobacter baumannii alpha clonal group isolate 4 expressing ampC, ompA, adeB, adeM, aacC1, aadA1 by Etest method
Acinetobacter baumannii [11] = experiment: Antimicrobial activity against ISAba1 linked with the blaOXA-51-type beta-lactamase harboring Acinetobacter baumannii zeta clonal group isolate 24 expressing ampC, ompA, adeB, adeM, aadA1, aacA4, aacC2, blaSHV-5 by Etest method
Acinetobacter baumannii [12] = experiment: Antimicrobial activity against ISAba1 linked with the blaOXA-51-type beta-lactamase harboring Acinetobacter baumannii zeta clonal group isolate 19 expressing ampC, ompA, adeB, adeM, aacC2 by Etest method
Acinetobacter baumannii [13] = experiment: Antimicrobial activity against ISAba1 linked with the blaOXA-51-type beta-lactamase harboring Acinetobacter baumannii beta clonal group isolate 9 expressing ampC, ompA, adeB, adeM by Etest method
Acinetobacter baumannii [14] = experiment: Antimicrobial activity against Acinetobacter baumannii alpha clonal group isolate 3 expressing ampC, ompA, adeB, adeM, aacC1, aadA1 by Etest method
Acinetobacter baumannii [15] = experiment: Antimicrobial activity against ISAba1 linked with the blaOXA-51-type beta-lactamase harboring Acinetobacter baumannii alpha clonal group isolate 7 expressing ampC, ompA, adeB, adeM, blaSHV-5 by Etest method
Acinetobacter baumannii [16] = experiment: Antimicrobial activity against ISAba1 linked with the blaOXA-51-type beta-lactamase harboring Acinetobacter baumannii beta clonal group isolate 10 expressing ompA, adeB, adeM, aacA4, blaSHV-5 by Etest method
Acinetobacter baumannii [17] = experiment: Antimicrobial activity against Acinetobacter baumannii eta clonal group isolate 36 expressing ampC, ompA, adeB, adeM by Etest method
Acinetobacter baumannii [18] = experiment: Antimicrobial activity against ISAba1 linked with the blaOXA-51-type beta-lactamase harboring Acinetobacter baumannii beta clonal group isolate 11 expressing ompA, adeB, adeM, blaSHV-5 by Etest method
Acinetobacter baumannii [19] = experiment: Antimicrobial activity against Acinetobacter baumannii unique clonal group isolate 38 expressing ampC, ompA, adeB, adeM by Etest method
Acinetobacter baumannii [20] = experiment: Antimicrobial activity against ISAba1 linked with the blaOXA-51-type beta-lactamase harboring Acinetobacter baumannii zeta clonal group isolate 26 expressing ampC, ompA, adeB, adeM, aadA1, aacA4, aacC2, blaSHV-5 by Etest method
Acinetobacter baumannii [21] = experiment: Antimicrobial activity against Acinetobacter baumannii unique clonal group isolate 39 expressing ampC, ompA, adeM by Etest method
Acinetobacter baumannii [22] = experiment: Antimicrobial activity against ISAba1 linked with the blaOXA-51-type beta-lactamase harboring Acinetobacter baumannii lambda clonal group isolate 30 expressing ampC, ompA, adeB, adeM, aadB, aadA1 by Etest method
Acinetobacter baumannii [23] = experiment: Antimicrobial activity against ISAba1 linked with the blaOXA-51-type beta-lactamase harboring Acinetobacter baumannii alpha clonal group isolate 6 expressing ampC, ompA, adeB, adeM, aacC1, aadA1 by Etest method
Acinetobacter baumannii [24] = experiment: Antimicrobial activity against ISAba1 linked with the blaOXA-51-type beta-lactamase harboring Acinetobacter baumannii alpha clonal group isolate 1 expressing ampC, ompA, adeB, adeM by Etest method
Acinetobacter baumannii [25] = experiment: Antimicrobial activity against ISAba1 linked with the blaOXA-51-type beta-lactamase harboring Acinetobacter baumannii beta clonal group isolate 14 expressing ompA, adeB, adeM, aacA4, blaSHV-5 by Etest method
Acinetobacter baumannii [26] = experiment: Antimicrobial activity against Acinetobacter baumannii alpha clonal group isolate 2 expressing ampC, ompA, adeB, adeM, aacC1, aadA1 by Etest method
Acinetobacter baumannii [27] = experiment: Antimicrobial activity against Acinetobacter baumannii unique clonal group isolate 37 expressing ampC, ompA, adeB, adeM by Etest method
Acinetobacter baumannii [28] = experiment: Antimicrobial activity against ISAba1 linked with the blaOXA-51-type beta-lactamase harboring Acinetobacter baumannii unique clonal group isolate 40 expressing ampC, ompA, adeB, adeM, aadA1, aacA4, aacC2, blaSHV-5 by Etest method
Acinetobacter baumannii [29] = experiment: Antimicrobial activity against ISAba1 linked with the blaOXA-51-type beta-lactamase harboring Acinetobacter baumannii beta clonal group isolate 17 expressing ompA, adeB, adeM, aacA4, blaSHV-5 by Etest method
Acinetobacter baumannii [30] = experiment: Antimicrobial activity against ISAba1 linked with the blaOXA-51-type beta-lactamase harboring Acinetobacter baumannii zeta clonal group isolate 22 expressing ampC, ompA, adeB, adeM, aadA1, aacA4, aacC2, blaSHV-5 by Etest method
Acinetobacter baumannii [31] = experiment: Antimicrobial activity against ISAba1 linked with the blaOXA-51-type beta-lactamase harboring Acinetobacter baumannii lambda clonal group isolate 28 expressing ampC, ompA, adeM, aadB, aadA1 by Etest method
Acinetobacter baumannii [32] = experiment: Antimicrobial activity against ISAba1 linked with the blaOXA-51-type beta-lactamase harboring Acinetobacter baumannii zeta clonal group isolate 21 expressing ampC, ompA, adeB, adeM, aacC2, blaSHV-5 by Etest method
Acinetobacter baumannii [33] = experiment: Antimicrobial activity against ISAba1 linked with the blaOXA-51-type beta-lactamase harboring Acinetobacter baumannii beta clonal group isolate 18 expressing ompA, adeB, adeM, aacA4, blaSHV-5 by Etest method
Acinetobacter baumannii [34] = experiment: Antimicrobial activity against ISAba1 linked with the blaOXA-51-type beta-lactamase harboring Acinetobacter baumannii zeta clonal group isolate 25 expressing ampC, ompA, adeB, adeM, aadA1, aacA4, aacC2, blaSHV-5 by Etest method
Acinetobacter baumannii [35] = experiment: Antimicrobial activity against ISAba1 linked with the blaOXA-51-type beta-lactamase harboring Acinetobacter baumannii zeta clonal group isolate 23 expressing ampC, ompA, adeB, adeM, aadA1, aacA4, aacC2, aphA6 by Etest method
Acinetobacter baumannii [36] = experiment: Antimicrobial activity against ISAba1 linked with the blaOXA-51-type beta-lactamase harboring Acinetobacter baumannii beta clonal group isolate 15 expressing ompA, adeB, adeM, aacA4, blaSHV-5 by Etest method
Acinetobacter baumannii [37] = experiment: Antimicrobial activity against ISAba1 linked with the blaOXA-51-type beta-lactamase harboring Acinetobacter baumannii beta clonal group isolate 13 expressing ompA, adeB, adeM, aacA4, blaSHV-5 by Etest method
Acinetobacter baumannii [38] = experiment: Antimicrobial activity against Acinetobacter baumannii nu clonal group isolate 32 expressing ampC, ompA, adeB, adeM, aadB, aadA2 by Etest method
Acinetobacter baumannii [39] = experiment: Antimicrobial activity against ISAba1 linked with the blaOXA-51-type beta-lactamase harboring Acinetobacter baumannii beta clonal group isolate 16 expressing ompA, adeB, adeM, aacA4, blaSHV-5 by Etest method
Acinetobacter baumannii [40] = experiment: Antimicrobial activity against Acinetobacter baumannii nu clonal group isolate 33 expressing ampC, ompA, adeB, adeM by Etest method

Molecule	MIC (Acinetobacter baumannii [1])	MIC (Acinetobacter baumannii [2])	MIC (Acinetobacter baumannii [3])	MIC (Acinetobacter baumannii [4])	MIC (Acinetobacter baumannii [5])	MIC (Acinetobacter baumannii [6])	MIC (Acinetobacter baumannii [7])	MIC (Acinetobacter baumannii [8])	MIC (Acinetobacter baumannii [9])	MIC (Acinetobacter baumannii [10])	MIC (Acinetobacter baumannii [11])	MIC (Acinetobacter baumannii [12])	MIC (Acinetobacter baumannii [13])	MIC (Acinetobacter baumannii [14])	MIC (Acinetobacter baumannii [15])	MIC (Acinetobacter baumannii [16])	MIC (Acinetobacter baumannii [17])	MIC (Acinetobacter baumannii [18])	MIC (Acinetobacter baumannii [19])	MIC (Acinetobacter baumannii [20])	other results
CN(C)c1cc(NC(=O)CNC(C)(C)C)c(O)c2c1C[C@H]1C[C@H]3[C@H](N(C)C)C(O)=C(C(N)=O)C(=O)[C@@]3(O)C(O)=C1C2=O [TIGECYCLINE]	2 µg/mL (≈ 3.41 µM)	0.19 µg/mL (≈ 0.324 µM)	0.25 µg/mL (≈ 0.427 µM)	0.19 µg/mL (≈ 0.324 µM)	0.5 µg/mL (≈ 0.854 µM)	1 µg/mL (≈ 1.71 µM)	0.75 µg/mL (≈ 1.28 µM)	0.5 µg/mL (≈ 0.854 µM)	1 µg/mL (≈ 1.71 µM)	1 µg/mL (≈ 1.71 µM)	1 µg/mL (≈ 1.71 µM)	0.75 µg/mL (≈ 1.28 µM)	3 µg/mL (≈ 5.12 µM)	1 µg/mL (≈ 1.71 µM)	0.75 µg/mL (≈ 1.28 µM)	1 µg/mL (≈ 1.71 µM)	0.25 µg/mL (≈ 0.427 µM)	1 µg/mL (≈ 1.71 µM)	0.09 µg/mL (≈ 0.154 µM)	1 µg/mL (≈ 1.71 µM)	MIC (Acinetobacter baumannii [21]): 0.25 µg/mL (≈ 0.427 µM); MIC (Acinetobacter baumannii [22]): 2 µg/mL (≈ 3.41 µM); MIC (Acinetobacter baumannii [23]): 0.75 µg/mL (≈ 1.28 µM); MIC (Acinetobacter baumannii [24]): 1 µg/mL (≈ 1.71 µM); MIC (Acinetobacter baumannii [25]): 0.5 µg/mL (≈ 0.854 µM); MIC (Acinetobacter baumannii [26]): 1 µg/mL (≈ 1.71 µM); MIC (Acinetobacter baumannii [27]): 0.25 µg/mL (≈ 0.427 µM); MIC (Acinetobacter baumannii [28]): 0.75 µg/mL (≈ 1.28 µM); MIC (Acinetobacter baumannii [29]): 0.5 µg/mL (≈ 0.854 µM); MIC (Acinetobacter baumannii [30]): 2 µg/mL (≈ 3.41 µM); MIC (Acinetobacter baumannii [31]): 0.19 µg/mL (≈ 0.324 µM); MIC (Acinetobacter baumannii [32]): 1.5 µg/mL (≈ 2.56 µM); MIC (Acinetobacter baumannii [33]): 3 µg/mL (≈ 5.12 µM); MIC (Acinetobacter baumannii [34]): 1 µg/mL (≈ 1.71 µM); MIC (Acinetobacter baumannii [35]): 1.5 µg/mL (≈ 2.56 µM); MIC (Acinetobacter baumannii [36]): 0.5 µg/mL (≈ 0.854 µM); MIC (Acinetobacter baumannii [37]): 0.5 µg/mL (≈ 0.854 µM); MIC (Acinetobacter baumannii [38]): 0.5 µg/mL (≈ 0.854 µM); MIC (Acinetobacter baumannii [39]): 0.5 µg/mL (≈ 0.854 µM); MIC (Acinetobacter baumannii [40]): 0.5 µg/mL (≈ 0.854 µM)
GENTAMICIN	192 µg/mL	1.5 µg/mL	3 µg/mL	16 µg/mL	2 µg/mL	> 256 µg/mL	> 256 µg/mL	> 256 µg/mL	12 µg/mL	12 µg/mL	> 256 µg/mL	> 256 µg/mL	6 µg/mL	12 µg/mL	2 µg/mL	4 µg/mL	3 µg/mL	2 µg/mL	0.25 µg/mL	> 256 µg/mL	MIC (Acinetobacter baumannii [21]): 0.38 µg/mL; MIC (Acinetobacter baumannii [22]): > 256 µg/mL; MIC (Acinetobacter baumannii [23]): 8 µg/mL; MIC (Acinetobacter baumannii [24]): 1 µg/mL; MIC (Acinetobacter baumannii [25]): 8 µg/mL; MIC (Acinetobacter baumannii [26]): 12 µg/mL; MIC (Acinetobacter baumannii [27]): 6 µg/mL; MIC (Acinetobacter baumannii [28]): > 256 µg/mL; MIC (Acinetobacter baumannii [29]): 8 µg/mL; MIC (Acinetobacter baumannii [30]): > 256 µg/mL; MIC (Acinetobacter baumannii [31]): 16 µg/mL; MIC (Acinetobacter baumannii [32]): > 256 µg/mL; MIC (Acinetobacter baumannii [33]): 64 µg/mL; MIC (Acinetobacter baumannii [34]): > 256 µg/mL; MIC (Acinetobacter baumannii [35]): > 256 µg/mL; MIC (Acinetobacter baumannii [36]): 8 µg/mL; MIC (Acinetobacter baumannii [37]): 8 µg/mL; MIC (Acinetobacter baumannii [38]): > 256 µg/mL; MIC (Acinetobacter baumannii [39]): 8 µg/mL; MIC (Acinetobacter baumannii [40]): 2 µg/mL
